SMILES | logP
COc1ccccc1C=CC(C)=O | 2.42
CC(=O)C=Cc1ccc(C(F)(F)F)cc1 | 3.13
CC(=O)C=Cc1ccccc1C | 2.6
CC(=O)C=Cc1cccc(F)c1 | 2.25
CC(=O)C=Cc1ccc(N(C)C)cc1 | 2.66
CC(=O)C=Cc1cccc([N+](=O)[O-])c1 | 1.88
CCOc1ccc(C=CC(C)=O)cc1 | 2.73
CC(=O)C=Cc1ccc(C#N)cc1 | 1.64
CCc1ccc(C=CC(C)=O)cc1 | 3.26
CC(=O)C=Cc1ccc(OC(C)=O)cc1 | 1.63
CC(=O)C=Cc1cccc(Cl)c1 | 2.81
CC(=O)C=Cc1ccc([N+](=O)[O-])cc1 | 1.9
CC(=O)C=Cc1ccc(Cl)cc1 | 2.8
COc1ccc(C=CC(C)=O)cc1 | 2.25
CC(=O)C=Cc1ccc(O)cc1 | 1.86
O=C(C=Cc1ccc(Cl)cc1)C(F)(F)F | 3.63

Other lines, results leading:

logP | SMILES
2.27 | COc1cccc(C=CC(C)=O)c1
3.33 | COc1ccc(C=CC(=O)C(F)(F)F)cc1
2.19 | CC(=O)C=Cc1ccccc1O
3.02 | CC(=O)C=Cc1cccc(Br)c1
3.03 | CC(=O)C=Cc1ccc(Br)cc1
2.34 | CC(=O)C=Cc1ccccc1F
3.58 | O=C(C=Cc1cccc(Cl)c1)C(F)(F)F
3.14 | CC(=O)C=Cc1ccccc1C(F)(F)F
3.39 | COc1ccccc1C=CC(=O)C(F)(F)F
3.05 | COc1cccc(C=CC(=O)C(F)(F)F)c1
2.45 | N#Cc1cccc(C=CC(=O)C(F)(F)F)c1
2.66 | O=C(C=Cc1cccc([N+](=O)[O-])c1)C(F)(F)F
2.65 | CC(=O)C=Cc1ccc(C)cc1
2.85 | CC(=O)C=Cc1ccccc1Cl
2.42 | N#Cc1ccc(C=CC(=O)C(F)(F)F)cc1
2.22 | CC(=O)C=Cc1ccc(F)cc1
2.68 | CC(=O)C=Cc1cccc(C)c1
3.01 | O=C(C=Cc1ccccc1)C(F)(F)F
3.5 | O=C(C=Cc1ccccc1Cl)C(F)(F)F
3.03 | CC(=O)C=Cc1cccc(C(F)(F)F)c1
1.59 | CC(=O)C=Cc1cccc(C#N)c1
